# Test results from US7449582B2, “Compounds and compositions as protein kinase inhibitors” (IRM LLC, priority 2003, dated 2008).
# Experiments:
# p70S6K = biological target: T1, p70S6K (Homo sapiens, UniProt P23443); experiment: Upstate KinaseProfiler radio-enzymatic filter binding assay, p70S6K; type: biochemical; settings: at a concentration of 10 μM; read-out: percentage inhibition
# T1 construct: purchased Upstate
# Description: (§1) Compounds of the invention are assessed for their ability to inhibit individual members of a panel of kinases (a partial, non-limiting list of kinases includes: Abl, BCR-Abl, CSK, JNK1, JNK2, PDGF-R, p38, p70S6K, TGFβ, SRC, EGFR, c-Kit, trkB, FGFR3, Fes, Lck, Syk, RAF, MKK4, MKK6 and SAPK2μ). The compounds are tested in duplicates at a final concentration of 10 μM following this generic protocol. Note that the kinase buffer composition and the substrates vary for the different kinases included in the “Upstate KinaseProfiler™” panel. Kinase buffer (2.5 μL, 10×—containing MnCl2 when required), active kinase (0.001-0.01 Units; 2.5 μL), specific or Poly(Glu4-Tyr) peptide (5-500 μM or 0.01 mg/ml) in kinase buffer and […] are mixed in an eppendorf on ice. […] The assay squares are transferred to a scintillation vial, 5 ml scintillation cocktail are added and ^32P incorporation (cpm) to the peptide substrate is quantified with a Beckman scintillation counter. Percentage inhibition is calculated for each reaction.
# Bmx = biological target: T2, Bmx (Homo sapiens, UniProt P51813); experiment: Upstate KinaseProfiler radio-enzymatic filter binding assay, Bmx; type: biochemical; settings: at a concentration of 10 μM; read-out: percentage inhibition
# T2 construct: purchased Upstate
# T2 sequence (P51813 whole entry): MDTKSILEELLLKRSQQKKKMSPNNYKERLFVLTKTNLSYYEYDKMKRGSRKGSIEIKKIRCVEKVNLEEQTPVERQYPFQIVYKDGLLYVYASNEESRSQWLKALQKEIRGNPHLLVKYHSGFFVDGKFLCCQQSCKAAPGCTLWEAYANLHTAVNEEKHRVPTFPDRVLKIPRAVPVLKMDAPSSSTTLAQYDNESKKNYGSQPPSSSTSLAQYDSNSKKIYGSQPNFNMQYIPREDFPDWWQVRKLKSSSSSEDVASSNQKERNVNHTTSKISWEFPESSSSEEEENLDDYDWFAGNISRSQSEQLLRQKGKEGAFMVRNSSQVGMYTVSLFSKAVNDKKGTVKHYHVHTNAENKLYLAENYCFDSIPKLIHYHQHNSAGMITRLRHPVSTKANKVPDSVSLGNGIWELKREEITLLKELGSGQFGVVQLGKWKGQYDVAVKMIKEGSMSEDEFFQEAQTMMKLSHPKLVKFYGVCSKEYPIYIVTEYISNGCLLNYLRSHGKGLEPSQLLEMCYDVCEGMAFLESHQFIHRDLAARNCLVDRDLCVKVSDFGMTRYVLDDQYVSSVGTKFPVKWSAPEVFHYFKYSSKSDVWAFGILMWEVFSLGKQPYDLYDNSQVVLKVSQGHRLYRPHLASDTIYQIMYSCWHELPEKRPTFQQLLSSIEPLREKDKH
# Description: as §1
# Ba/F3-TEL-FGFR3 cells = experiment: FGFR3 (Cellular Assay); type: cell-based
# Description: Compounds of the invention are tested for their ability to inhibit transformed Ba/F3-TEL-FGFR3 cells proliferation, which is depended on FGFR3 cellular kinase activity. Ba/F3-TEL-FGFR3 are cultured up to 800,000 cells/mL in suspension, with RPMI 1640 supplemented with 10% fetal bovine serum as the culture medium. Cells are dispensed into 384-well format plate at 5000 cell/well in 50 μL culture medium. Compounds of the invention are dissolved and diluted in dimethylsufoxide (DMSO). Twelve points 1:3 serial dilutions are made into DMSO to create concentrations gradient ranging typically from 10 mM to 0.05 μM. Cells are added with 50 nL of diluted compounds and incubated for 48 hours in cell culture incubator. AlamarBlue® (TREK Diagnostic Systems), which can be used to monitor the reducing environment created by proliferating cells, are added to cells at final concentration of 10%. After additional four hours of incubation in a 37° C. cell culture incubator, fluorescence signals from reduced AlamarBlue® (Excitation at 530 nm, Emission at 580 nm) are quantified on Analyst GT (Molecular Devices Corp.). IC50 values are calculated by linear regression analysis of the percentage inhibition of each compound at 12 concentrations.
# F317L Bcr-abl = biological target: T3, F317L Bcr-abl (Homo sapiens, UniProt P00519, F317L); experiment: Proliferation of Ba/F3 cells expressing F317L mutant Bcr-abl; type: cell-based
# T3 construct: BCR (N-terminal fusion partner); expressed in transfected cells; host or cells: Ba/F3 (murine pro-B cells); the other entry of the earlier key: BCR (P11274, Breakpoint cluster region protein)
# Description: (§2) 32D-p210 cells are plated into 96 well TC plates at a density of 15,000 cells per well. 50 μL of two fold serial dilutions of the test compound (Cmax is 40 μM) are added to each well (STI571 is included as a positive control). After incubating the cells for 48 hours at 37° C., 5% CO2, 15 μL of MTT (Promega) is added to each well and the cells are incubated for an additional 5 hours. The optical density at 570 nm is quantified spectrophotometrically and IC50 values, the concentration of compound required for 50% inhibition, determined from a dose response curve.
# (§3) Compounds of the invention are tested for their antiproliferative effect on Ba/F3 cells expressing either wild type or the mutant forms of BCR-Abl (G250E, E255V, T315I, F317L, M351T) that confers resistance or diminished sensitivity to ST1571. The antiproliferative effect of these compounds on the mutant-BCR-Abl expressing cells and on the non transformed cells were tested at 10, 3.3, 1.1 and 0.37 μM as described above (in media lacking IL3). The IC50 values of the compounds lacking toxicity on the untransformed cells were determined from the dose response curves obtained as describe above.
# MKK6 = biological target: T4, MKK6 (Homo sapiens, UniProt P52564); experiment: Upstate KinaseProfiler radio-enzymatic filter binding assay, MKK6; type: biochemical; settings: at a concentration of 10 μM; read-out: percentage inhibition
# T4 construct: purchased Upstate
# Description: as §1
# wild type Bcr-abl = biological target: T5, wild type Bcr-abl (Homo sapiens, UniProt P00519); experiment: Proliferation of Ba/F3 cells expressing wild type Bcr-abl; type: cell-based
# T5 construct: BCR (N-terminal fusion partner); expressed in transfected cells; host or cells: Ba/F3 (murine pro-B cells); the other entry of the earlier key: BCR (P11274, Breakpoint cluster region protein)
# Description: as §2, §3
# T315I Bcr-abl = biological target: T6, T315I Bcr-abl (Homo sapiens, UniProt P00519, T315I); experiment: Proliferation of Ba/F3 cells expressing T315I mutant Bcr-abl; type: cell-based
# T6 construct: BCR (N-terminal fusion partner); expressed in transfected cells; host or cells: Ba/F3 (murine pro-B cells); the other entry of the earlier key: BCR (P11274, Breakpoint cluster region protein)
# Description: as §2, §3
# FGFR3 [1] = biological target: T7, FGFR3 (Homo sapiens, UniProt P22607); experiment: Upstate KinaseProfiler radio-enzymatic filter binding assay, FGFR3; type: biochemical; settings: at a concentration of 10 μM; read-out: percentage inhibition
# T7 construct: purchased Upstate
# T7 sequence (P22607 23-806): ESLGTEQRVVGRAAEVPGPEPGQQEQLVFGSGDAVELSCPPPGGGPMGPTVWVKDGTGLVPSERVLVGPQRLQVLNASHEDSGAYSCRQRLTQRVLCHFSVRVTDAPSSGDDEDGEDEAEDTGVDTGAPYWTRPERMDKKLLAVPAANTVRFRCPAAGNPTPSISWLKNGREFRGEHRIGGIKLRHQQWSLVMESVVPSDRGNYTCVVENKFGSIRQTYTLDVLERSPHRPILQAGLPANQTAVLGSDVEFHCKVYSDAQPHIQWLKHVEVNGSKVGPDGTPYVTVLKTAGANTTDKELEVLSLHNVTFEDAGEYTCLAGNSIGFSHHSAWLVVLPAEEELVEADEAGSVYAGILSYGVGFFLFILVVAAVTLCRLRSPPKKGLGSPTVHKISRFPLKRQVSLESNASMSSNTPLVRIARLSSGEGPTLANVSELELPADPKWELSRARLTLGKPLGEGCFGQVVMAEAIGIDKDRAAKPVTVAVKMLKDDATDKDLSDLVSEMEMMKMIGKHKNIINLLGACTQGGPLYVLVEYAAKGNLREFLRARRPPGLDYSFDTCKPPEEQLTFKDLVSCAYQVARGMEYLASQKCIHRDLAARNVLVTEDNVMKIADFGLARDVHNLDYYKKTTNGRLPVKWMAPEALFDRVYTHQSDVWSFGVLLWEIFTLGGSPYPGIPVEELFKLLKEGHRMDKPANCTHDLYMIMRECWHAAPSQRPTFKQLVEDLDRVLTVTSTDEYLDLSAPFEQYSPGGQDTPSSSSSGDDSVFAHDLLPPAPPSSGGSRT
# Description: as §1
# G250E Bcr-abl = biological target: T8, G250E Bcr-abl (Homo sapiens, UniProt P00519, G250E); experiment: Proliferation of Ba/F3 cells expressing G250E mutant Bcr-abl; type: cell-based
# T8 construct: BCR (N-terminal fusion partner); expressed in transfected cells; host or cells: Ba/F3 (murine pro-B cells); the other entry of the earlier key: BCR (P11274, Breakpoint cluster region protein)
# Description: as §2, §3
# wild-type Abl = experiment: Upstate KinaseProfiler radio-enzymatic filter binding assay, Abl; type: biochemical; settings: at a concentration of 10 μM
# Description: as §1
# Lck = biological target: T9, Lck (Homo sapiens, UniProt P06239); experiment: Upstate KinaseProfiler radio-enzymatic filter binding assay, Lck; type: biochemical; settings: at a concentration of 10 μM; read-out: percentage inhibition
# T9 construct: purchased Upstate
# T9 sequence (P06239 whole entry): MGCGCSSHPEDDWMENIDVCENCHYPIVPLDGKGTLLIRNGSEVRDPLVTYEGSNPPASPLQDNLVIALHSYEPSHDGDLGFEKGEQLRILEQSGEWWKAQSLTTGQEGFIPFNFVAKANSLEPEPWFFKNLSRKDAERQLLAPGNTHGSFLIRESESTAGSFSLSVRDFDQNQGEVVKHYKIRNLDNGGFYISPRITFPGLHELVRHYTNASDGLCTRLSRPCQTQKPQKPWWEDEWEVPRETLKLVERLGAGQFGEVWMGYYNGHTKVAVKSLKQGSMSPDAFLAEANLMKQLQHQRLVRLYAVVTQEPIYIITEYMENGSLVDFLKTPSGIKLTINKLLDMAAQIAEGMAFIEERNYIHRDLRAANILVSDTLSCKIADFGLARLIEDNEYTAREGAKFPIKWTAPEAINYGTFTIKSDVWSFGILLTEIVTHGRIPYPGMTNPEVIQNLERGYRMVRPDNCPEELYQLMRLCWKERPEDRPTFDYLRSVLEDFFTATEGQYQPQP
# Description: as §1
# c-Raf [2] = biological target: T10, c-Raf (Homo sapiens, UniProt P04049, Y340D/Y341D); experiment: Upstate KinaseProfiler radio-enzymatic filter binding assay, c-RAF; type: biochemical; settings: at a concentration of 10 μM; read-out: percentage inhibition
# T10 construct: purchased Upstate
# T10 sequence (P04049 306-648 Y340D/Y341D limits assumed): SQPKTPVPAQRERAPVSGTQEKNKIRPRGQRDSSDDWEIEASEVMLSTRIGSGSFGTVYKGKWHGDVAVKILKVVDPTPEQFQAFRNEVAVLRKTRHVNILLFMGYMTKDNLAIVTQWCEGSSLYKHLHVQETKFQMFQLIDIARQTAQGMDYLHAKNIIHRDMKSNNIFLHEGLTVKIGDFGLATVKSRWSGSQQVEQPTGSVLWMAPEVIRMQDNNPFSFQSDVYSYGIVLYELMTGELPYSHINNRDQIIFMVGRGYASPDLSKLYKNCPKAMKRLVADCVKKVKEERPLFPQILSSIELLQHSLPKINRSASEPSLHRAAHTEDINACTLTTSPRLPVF
# Description: as §1
# SAPK2β = biological target: T11, SAPK2β (Homo sapiens, UniProt Q15759); experiment: Upstate KinaseProfiler radio-enzymatic filter binding assay, SAPK2β; type: biochemical; settings: at a concentration of 10 μM; read-out: percentage inhibition
# T11 construct: purchased Upstate
# T11 sequence (Q15759 whole entry): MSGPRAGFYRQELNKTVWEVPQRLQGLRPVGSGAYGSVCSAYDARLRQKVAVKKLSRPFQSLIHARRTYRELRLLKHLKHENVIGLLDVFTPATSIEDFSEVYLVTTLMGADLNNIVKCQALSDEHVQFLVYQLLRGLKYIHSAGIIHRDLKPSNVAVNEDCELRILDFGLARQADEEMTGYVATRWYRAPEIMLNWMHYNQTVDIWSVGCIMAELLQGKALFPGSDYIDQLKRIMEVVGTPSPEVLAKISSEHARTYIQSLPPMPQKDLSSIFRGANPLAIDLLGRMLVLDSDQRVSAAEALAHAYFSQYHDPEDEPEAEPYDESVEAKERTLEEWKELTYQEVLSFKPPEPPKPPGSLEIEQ
# Description: as §1
# JNK2 α2 = biological target: T12, JNK2 α2 (Homo sapiens, UniProt P45984); experiment: Upstate KinaseProfiler radio-enzymatic filter binding assay, JNK2α2; type: biochemical; settings: at a concentration of 10 μM; read-out: percentage inhibition
# T12 construct: purchased Upstate
# Description: as §1
# M351T Bcr-abl = biological target: T13, M351T Bcr-abl (Homo sapiens, UniProt P00519, M351T); experiment: Proliferation of Ba/F3 cells expressing M351T mutant Bcr-abl; type: cell-based
# T13 construct: BCR (N-terminal fusion partner); expressed in transfected cells; host or cells: Ba/F3 (murine pro-B cells); the other entry of the earlier key: BCR (P11274, Breakpoint cluster region protein)
# Description: as §2, §3
# FGFR3 [3] = biological target: T7, FGFR3; experiment: FGFR3 (Enzymatic Assay); type: biochemical; settings: FGFR3 enzyme assay
# Description: Kinase activity assay with purified FGFR3 (Upstate) is carried out in a final volume of 10 μL containing 0.25 μg/mL of enzyme in kinase buffer (30 mM Tris-HCl pH7.5, 15 mM MgCl2, 4.5 mM MnCl2, 15 μM Na3VO4 and 50 μg/mL BSA), and substrates (5 μg/mL biotin-poly-EY(Glu, Tyr) (CIS-US, Inc.) and 3 μM ATP). Two solutions are made: the first solution of 5 μl contains the FGFR3 enzyme in kinase buffer was first dispensed into 384-format ProxiPlate® (Perkin-Elmer) followed by adding 50 nL of compounds dissolved in DMSO, then 5 μl of second solution contains the substrate (poly-EY) and ATP in kinase buffer was added to each wells. The reactions are incubated at room temperature for one hour, stopped by adding 10 μL of HTRF detection mixture, which contains 30 mM Tris-HCl pH7.5, 0.5 M KF, 50 mM ETDA, 0.2 mg/mL BSA, 15 μg/mL streptavidin-XL665 (CIS-US, Inc.) and 150 ng/mL cryptate conjugated anti-phosphotyrosine antibody (CIS-US, Inc.). After one hour of room temperature incubation to allow for streptavidin-biotin interaction, time resolved florescent signals are read on Analyst GT (Molecular Devices Corp.). IC50 values are calculated by linear regression analysis of the percentage inhibition of each compound at 12 concentrations (1:3 dilution from 50 μM to 0.28 nM).
# MKK4 = biological target: T14, MKK4 (Mus musculus, UniProt P47809); experiment: Upstate KinaseProfiler radio-enzymatic filter binding assay, MKK4; type: biochemical; settings: at a concentration of 10 μM; read-out: percentage inhibition
# T14 construct: purchased Upstate
# Description: as §1
# E255V Bcr-abl = biological target: T15, E255V Bcr-abl (Homo sapiens, UniProt P00519, E255V); experiment: Proliferation of Ba/F3 cells expressing E255V mutant Bcr-abl; type: cell-based
# T15 construct: BCR (N-terminal fusion partner); expressed in transfected cells; host or cells: Ba/F3 (murine pro-B cells); the other entry of the earlier key: BCR (P11274, Breakpoint cluster region protein)
# Description: as §2, §3
# b-Raf = b-Raf (Homo sapiens, UniProt P15056); experiment: b-Raf enzyme assay; type: biochemical
# Description: Compounds of the invention are tested for their ability to inhibit the activity of b-Raf. The assay is carried out in 384-well MaxiSorp plates (NUNC) with black walls and clear bottom. The substrate, IκBα is diluted in DPBS (1:750) and 15 μl is added to each well. The plates are incubated at 4° C. overnight and washed 3 times with TBST (25 mM Tris, pH 8.0, 150 mM NaCl and 0.05% Tween-20) using the EMBLA plate washer. Plates are blocked by Superblock (15 μl/well) for 3 hours at room temperature, washed 3 times with TBST and pat-dried. Assay buffer containing 20 μM ATP (10 μl) is added to each well followed by 100 nl or 500 nl of compound. B-Raf is diluted in the assay buffer (1 μl into 25 μl) and 10 μl of diluted b-Raf is added to each well (0.4 μg/well). The plates are incubated at room temperature for 2.5 hours. The kinase reaction is stopped by washing the plates 6 times with TBST. Phosph-IκBα (Ser32/36) antibody is diluted in Superblock (1:10,000) and 15 μl is added to each well. The plates are incubated at 4° C. overnight and washed 6 times with TBST. AP-conjugated goat-anti-mouse IgG is diluted in Superblock (1:1,500) and 15 μl is added to each well. Plates are incubated at room temperature for 1 hour and washed 6 times with TBST. […] Plates are read on Acquest or Analyst GT using a Fluorescence Intensity Nanxin BBT anion (505 dichroic mirror).
# CSK = biological target: T16, CSK (Homo sapiens, UniProt P41240); experiment: Upstate KinaseProfiler radio-enzymatic filter binding assay, CSK; type: biochemical; settings: at a concentration of 10 μM; read-out: percentage inhibition
# T16 construct: purchased Upstate
# Description: as §1
# SAPK2α = biological target: T17, SAPK2α (Homo sapiens, UniProt Q16539); experiment: Upstate KinaseProfiler radio-enzymatic filter binding assay, SAPK2α; type: biochemical; settings: at a concentration of 10 μM; read-out: percentage inhibition
# T17 construct: purchased Upstate
# Description: as §1
# JNK1α1 = biological target: T18, JNK1α1 (Homo sapiens, UniProt P45983); experiment: Upstate KinaseProfiler radio-enzymatic filter binding assay, JNK1α1; type: biochemical; settings: at a concentration of 10 μM; read-out: percentage inhibition
# T18 construct: purchased Upstate
# T18 sequence (P45983 1-384 isoform P45983-2): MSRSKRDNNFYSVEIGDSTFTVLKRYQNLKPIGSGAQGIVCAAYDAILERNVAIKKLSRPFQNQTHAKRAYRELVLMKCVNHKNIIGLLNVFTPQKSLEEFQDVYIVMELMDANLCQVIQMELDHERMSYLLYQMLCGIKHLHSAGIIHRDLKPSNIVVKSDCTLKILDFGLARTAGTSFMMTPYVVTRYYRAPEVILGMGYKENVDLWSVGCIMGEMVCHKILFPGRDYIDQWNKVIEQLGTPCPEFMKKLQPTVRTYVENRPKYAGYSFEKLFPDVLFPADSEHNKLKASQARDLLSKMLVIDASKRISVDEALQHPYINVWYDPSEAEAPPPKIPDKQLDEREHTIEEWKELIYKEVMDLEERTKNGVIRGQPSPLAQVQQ
# Description: as §1
# TrkB = biological target: T19, TrkB (Homo sapiens, UniProt Q16620); experiment: Upstate KinaseProfiler radio-enzymatic filter binding assay, TrkB; type: biochemical; settings: at a concentration of 10 μM; read-out: percentage inhibition
# T19 construct: purchased Upstate
# T19 sequence (Q16620 32-822): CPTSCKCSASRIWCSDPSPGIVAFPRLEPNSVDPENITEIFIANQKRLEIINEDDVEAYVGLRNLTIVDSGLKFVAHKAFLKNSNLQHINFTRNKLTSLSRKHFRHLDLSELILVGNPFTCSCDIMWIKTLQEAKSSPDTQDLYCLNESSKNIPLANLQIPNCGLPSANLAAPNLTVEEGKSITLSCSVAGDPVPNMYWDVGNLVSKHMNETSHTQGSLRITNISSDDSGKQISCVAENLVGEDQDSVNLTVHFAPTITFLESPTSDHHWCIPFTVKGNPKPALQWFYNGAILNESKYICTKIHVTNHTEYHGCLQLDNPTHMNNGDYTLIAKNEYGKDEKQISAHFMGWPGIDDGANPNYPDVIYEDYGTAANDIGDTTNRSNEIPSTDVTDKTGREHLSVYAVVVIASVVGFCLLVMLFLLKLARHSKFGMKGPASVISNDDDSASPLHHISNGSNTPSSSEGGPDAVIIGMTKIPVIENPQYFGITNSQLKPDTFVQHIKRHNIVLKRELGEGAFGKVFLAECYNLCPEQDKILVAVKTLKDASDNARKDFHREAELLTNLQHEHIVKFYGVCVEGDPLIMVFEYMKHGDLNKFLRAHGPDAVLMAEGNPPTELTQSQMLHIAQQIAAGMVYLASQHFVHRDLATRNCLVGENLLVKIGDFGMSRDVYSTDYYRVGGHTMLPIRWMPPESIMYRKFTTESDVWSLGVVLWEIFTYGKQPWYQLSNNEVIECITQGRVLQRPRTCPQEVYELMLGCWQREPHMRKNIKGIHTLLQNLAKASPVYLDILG
# Description: as §1
# c-Raf [4] = biological target: c-Raf (Homo sapiens, UniProt P04049); experiment: c-Raf enzyme assay; type: biochemical
# Sequence of c-Raf (Homo sapiens, UniProt P04049) (P04049 whole entry, species assumed): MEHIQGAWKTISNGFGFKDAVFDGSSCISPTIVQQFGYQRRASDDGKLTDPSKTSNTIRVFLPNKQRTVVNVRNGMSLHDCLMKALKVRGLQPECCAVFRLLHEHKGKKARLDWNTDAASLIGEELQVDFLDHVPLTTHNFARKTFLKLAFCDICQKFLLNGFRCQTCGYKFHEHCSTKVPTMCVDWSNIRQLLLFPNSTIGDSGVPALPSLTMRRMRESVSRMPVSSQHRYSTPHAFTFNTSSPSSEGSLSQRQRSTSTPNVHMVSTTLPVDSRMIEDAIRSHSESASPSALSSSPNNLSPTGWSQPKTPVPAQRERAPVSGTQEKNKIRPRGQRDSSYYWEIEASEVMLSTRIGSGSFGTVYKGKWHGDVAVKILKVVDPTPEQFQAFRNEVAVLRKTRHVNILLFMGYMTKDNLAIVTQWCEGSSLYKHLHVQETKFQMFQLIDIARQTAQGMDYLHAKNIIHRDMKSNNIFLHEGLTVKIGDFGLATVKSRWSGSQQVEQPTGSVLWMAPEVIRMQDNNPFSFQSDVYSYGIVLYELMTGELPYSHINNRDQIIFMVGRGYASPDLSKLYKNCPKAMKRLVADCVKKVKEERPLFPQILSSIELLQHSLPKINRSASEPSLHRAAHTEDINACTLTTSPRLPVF
# T1 sequence (P23443 whole entry): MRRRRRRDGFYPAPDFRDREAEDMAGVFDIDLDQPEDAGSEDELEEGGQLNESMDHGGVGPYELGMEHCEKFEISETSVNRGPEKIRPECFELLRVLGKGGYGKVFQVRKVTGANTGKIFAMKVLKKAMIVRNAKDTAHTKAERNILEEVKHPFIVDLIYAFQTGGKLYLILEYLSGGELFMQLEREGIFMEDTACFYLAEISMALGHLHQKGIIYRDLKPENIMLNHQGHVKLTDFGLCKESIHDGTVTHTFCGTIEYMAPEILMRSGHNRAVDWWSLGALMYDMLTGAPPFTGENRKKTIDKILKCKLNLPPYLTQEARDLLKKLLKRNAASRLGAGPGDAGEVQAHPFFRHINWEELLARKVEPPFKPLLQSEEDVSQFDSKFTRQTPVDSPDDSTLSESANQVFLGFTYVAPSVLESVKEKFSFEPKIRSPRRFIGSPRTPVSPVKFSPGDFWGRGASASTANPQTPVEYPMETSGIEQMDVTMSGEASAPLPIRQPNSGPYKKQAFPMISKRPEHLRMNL
smiles,measurement,setting,value
"COc1ccc(Nc2cc3c(cn2)cc(-c2cc(NC(=O)c4cccc(C(F)(F)F)c4)ccc2C)c(=O)n3C)cn1 [Example 8, N-{3-[7-(6-Methoxy-pyridin-3-ylamino)-1-methyl-2-oxo-1,2-dihydro-[1,6]naphthyridin-3-yl]-4-methyl-phenyl}-3-trifluoromethyl-benzamide]",inhibition at 10 µM,p70S6K,86%
same,inhibition at 10 µM,Bmx,100%
same,IC50,Ba/F3-TEL-FGFR3 cells,3 nM
same,IC50,F317L Bcr-abl,< 0.5 nM
same,inhibition at 10 µM,MKK6,97%
same,IC50,wild type Bcr-abl,< 0.5 nM
same,IC50,T315I Bcr-abl,122 nM
same,inhibition at 10 µM,FGFR3 [1],96%
same,IC50,G250E Bcr-abl,43 nM
same,percentage inhibition,wild-type Abl,100%
same,inhibition at 10 µM,Lck,99%
same,inhibition at 10 µM,c-Raf [2],90%
same,inhibition at 10 µM,SAPK2β,98%
same,inhibition at 10 µM,JNK2 α2,99%
same,IC50,M351T Bcr-abl,9 nM
same,IC50,FGFR3 [3],107 nM
same,inhibition at 10 µM,MKK4,91%
same,IC50,E255V Bcr-abl,48 nM
same,IC50,b-Raf,500 nM
same,inhibition at 10 µM,CSK,100%
same,inhibition at 10 µM,SAPK2α,95%
same,inhibition at 10 µM,JNK1α1,89%
same,inhibition at 10 µM,TrkB,97%
same,IC50,c-Raf [4],17 nM
